Here are results for twelve compounds from patent US20250099420A1, “SMALL MOLECULE MODULATORS OF GPR139 COMPLEX” (University of Florida Research Foundation, Incorporated, priority 2022, published 2025).

Read-outs that look alike come from different tables or passages of the source.

Broadly, the EC50 is the concentration needed to bring the measured effect to its halfway point.

Data set [1] concerns parental HEK cells. As to the kind of experiment: HEK parental Agonist Counterscreen Assay (non-transfected cells). It counts as cell-based. The conditions noted are these: for Averaged Max % Response (±St. Dev.): activity relative to known control. The source says: The high control for the agonist counterscreen was Forskolin not acetylcholine.
(Counterscreens check selectivity or assay interference.)

The target in data set [2] is T1, GPR139 (Homo sapiens, UniProt Q6DWJ6).
T1 sequence (Q6DWJ6 1-353): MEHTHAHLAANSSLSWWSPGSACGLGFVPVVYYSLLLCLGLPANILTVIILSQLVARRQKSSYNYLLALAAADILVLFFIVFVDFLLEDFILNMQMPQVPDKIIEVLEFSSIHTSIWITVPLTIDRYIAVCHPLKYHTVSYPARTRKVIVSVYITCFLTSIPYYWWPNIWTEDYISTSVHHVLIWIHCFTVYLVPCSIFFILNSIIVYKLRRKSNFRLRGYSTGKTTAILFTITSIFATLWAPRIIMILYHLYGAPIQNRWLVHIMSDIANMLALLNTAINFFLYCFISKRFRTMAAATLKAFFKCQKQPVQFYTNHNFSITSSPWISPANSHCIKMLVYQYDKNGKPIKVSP
Briefly: GPR139 Agonist titration / agonist counterscreen assay (calcium detection, HEK-GPR139 cells). The data set is classed as cell-based. Details: expressed in transfected cells; host or cells: HEK Aequorin cells, Maxcyte transient transfection. The settings on record: GPR139 Agonist Activity; for Averaged Max % Response (±St. Dev.): activity relative to known control; for EC50: read-out: EC50. The protocol:
GPR activity was assessed using a calcium detection assay. […] Negative control samples were treated with DMSO. […] Intracellular calcium was measured using Calcium 5.

Where [3] appears, read: HEK Agonist Activity, parental non-transfected HEK cells.
[4] abbreviates: values printed in E-notation without unit.
Setting [5] is: Homo sapiens, HEK293, HEK Agonist Activity section of Table 4 (parental HEK counterscreen).
Setting [6] is: Homo sapiens, HEK293, HEK Agonist Activity, parental non-transfected HEK cells.
Where [7] appears, read: HEK Agonist Activity section of Table 4 (parental HEK counterscreen).

With `O=C(NCCc1ccc(Cl)cc1)c1ccc(N2CC3CC(C2)c2cccc(=O)n2C3)c(NS(=O)(=O)c2ccc3c(c2)OCCO3)c1` (stereo not shown) [SR-01000583473], the results for the “Hill Slope” value in data set [1] (HEK Agonist Activity) and in data set [2] (fitted dose-response curve) were 0.45 and 0.26, respectively. For the same compound, the entries for the “Lipophilic Efficiency (logD)” value in data set [1] (HEK Agonist Activity) and in data set [2] (based on logD) were 1.64 and 3.89, respectively. The “Lipophilic Efficiency (logP)” value in data set [1] (HEK Agonist Activity) is listed as 1.46; in data set [2] (based on logP), 3.71. For the same compound, the “Averaged Max % Response (±St. Dev.)” value in data set [1] (HEK Agonist Activity) is 54.64 ± 8.92%; in data set [2], 116.62 ± 3.81%. In addition, the EC50 in data set [1] (setting [3]) is 7200 nM; in data set [2] (setting [4]) it was 40.1 nM. Besides, the “Efficiency Ligand” value in data set [2] (ligand efficiency) stood at 0.23.
For `O=C(CN1CC(=O)N(Cc2ccc(O)cc2)C(c2ccccc2Cl)C1=O)NCc1ccco1` (stereo not shown) [SR-01000583711], in data set [1] (HEK Agonist Activity section), the “Lipophilic Efficiency (logD)” value is reported as 1.87, the “Lipophilic Efficiency (logP)” value stood at 1.87 and the “Averaged Max % Response (±St. Dev.)” value amounted to 9.29 ± 2.62%. Also, in data set [1] (setting [5]), the EC50 is more than 11100 nM. In data set [2], the “Efficiency Ligand” value was 0.27, the “Hill Slope” value is 0.32, the “Lipophilic Efficiency (logD)” value is 3.24 and the “Lipophilic Efficiency (logP)” value was determined as 3.24. Also, the “Averaged Max % Response (±St. Dev.)” value in data set [2] was 95.83 ± 14.92%. Also, the EC50 in data set [2] (HEK-GPR139 cells) is 469 nM.
Turning to `COP(=O)(CN(CCc1ccc(Cl)cc1)C(=O)Nc1ccc(Cl)c(Cl)c1)OC` [SR-01000584158], the “Lipophilic Efficiency (logD)” value is on record as −0.34 in data set [1] (HEK Agonist Activity) and 2.25 in data set [2] (based on logD). In addition, the “Lipophilic Efficiency (logP)” value in data set [1] (HEK Agonist Activity) is reported as −0.34; in data set [2] (based on logP), 2.25. Moreover, the “Averaged Max % Response (±St. Dev.)” value in data set [1] (HEK Agonist Activity) is 0.77 ± 6.52%; in data set [2] it was 123.61 ± 28.77%. In addition, the results for the EC50 in data set [1] (setting [3]) and in data set [2] (setting [4]) were more than 14100 nM and 36.6 nM, respectively. Also, in data set [2] (fitted dose-response curve), the “Hill Slope” value turned out to be 0.47. Moreover, in data set [2] (ligand efficiency), the “Efficiency Ligand” value is reported as 0.37.
In the case of `CCn1c(=O)n(CC(=O)NCC2COc3ccccc3O2)c(=O)c2ccccc21` (stereo not shown) [SR-01000589950], the “Lipophilic Efficiency (logD)” value in data set [1] (HEK Agonist Activity) came to 3.39; in data set [2] (based on logD), 5.98. In addition, the figures for the “Lipophilic Efficiency (logP)” value in data set [1] (HEK Agonist Activity) and in data set [2] (based on logP) were 3.39 and 5.98, respectively. Besides, the “Averaged Max % Response (±St. Dev.)” value was −9.62 ± 21.31% in data set [1] (HEK Agonist Activity) and 90.30 ± 31.36% in data set [2]. Further, the EC50 in data set [1] (setting [6]) is more than 14100 nM; in data set [2] (setting [4]) it was 36.4 nM. For the same compound, the “Hill Slope” value in data set [2] (fitted dose-response curve) was determined as 0.72. Further, in data set [2] (ligand efficiency), the “Efficiency Ligand” value worked out at 0.36.
`Nc1ccc2c(C(F)(F)F)cc(=O)oc2c1` [SR-01000597171]: in data set [1] (HEK Agonist Activity section), the “Hill Slope” value is recorded as 2.90, the “Lipophilic Efficiency (logD)” value worked out at 3.35, the “Lipophilic Efficiency (logP)” value is 3.35 and the “Averaged Max % Response (±St. Dev.)” value was determined as 92.06 ± 10.88%. Besides, the EC50 in data set [1] (setting [7]) amounted to 10700 nM. In data set [2], the “Efficiency Ligand” value stood at 0.47, the “Lipophilic Efficiency (logD)” value was 3.74, the “Lipophilic Efficiency (logP)” value is 3.74 and the “Averaged Max % Response (±St. Dev.)” value is 177.62 ± 11.26%. The EC50 in data set [2] (HEK-GPR139 cells) is more than 4400 nM.
As for `Cc1onc(-c2ccccc2Cl)c1C(=O)NNC(=O)CSc1ccccc1[N+](=O)[O-]` [SR-01000633083], the figures for the “Lipophilic Efficiency (logD)” value in data set [1] (HEK Agonist Activity) and in data set [2] (based on logD) were 1.49 and 4.82, respectively. Further, the “Lipophilic Efficiency (logP)” value in data set [1] (HEK Agonist Activity) was determined as 1.48; in data set [2] (based on logP), 4.81. In addition, the “Averaged Max % Response (±St. Dev.)” value was 21.09 ± 6.01% in data set [1] (HEK Agonist Activity) and 100.43 ± 4.95% in data set [2]. In addition, the EC50 in data set [1] (setting [6]) is more than 14100 nM; in data set [2] (setting [4]), 6.7 nM. In data set [2] (fitted dose-response curve), the “Hill Slope” value stood at 0.91. Besides, the “Efficiency Ligand” value in data set [2] (ligand efficiency) is recorded as 0.38.
Regarding `Cc1nn(-c2ccccc2)nc1C(=O)NNC(=O)CSCc1cccc2ccccc12` [SR-01000634249], in data set [1] (HEK Agonist Activity section), the “Lipophilic Efficiency (logD)” value came to 1.65, the “Lipophilic Efficiency (logP)” value is recorded as 1.65 and the “Averaged Max % Response (±St. Dev.)” value was 7.70 ± 7.23%. For the same compound, in data set [1] (setting [7]), the EC50 is more than 14100 nM. In data set [2], the “Efficiency Ligand” value worked out at 0.26, the “Hill Slope” value was 0.69, the “Lipophilic Efficiency (logD)” value came to 2.57 and the “Lipophilic Efficiency (logP)” value came to 2.57. Further, the “Averaged Max % Response (±St. Dev.)” value in data set [2] is 89.30 ± 20.10%. The EC50 in data set [2] (HEK-GPR139 cells) is 1700 nM.
`COc1cc(C(=O)NNC(=O)C(C)Oc2ccc(Cl)cc2Cl)cc(OC)c1OC` (stereo not shown) [SR-01000644888]: in data set [1] (HEK Agonist Activity section), the “Lipophilic Efficiency (logD)” value was 1.84, the “Lipophilic Efficiency (logP)” value stood at 1.80 and the “Averaged Max % Response (±St. Dev.)” value stood at 30.23 ± 7.95%. In data set [1] (setting [5]), the EC50 is more than 14100 nM. For the same compound, in data set [2], the “Efficiency Ligand” value is 0.31, the “Hill Slope” value stood at 0.74, the “Lipophilic Efficiency (logD)” value is recorded as 3.44 and the “Lipophilic Efficiency (logP)” value was found to be 3.40. Also, in data set [2], the “Averaged Max % Response (±St. Dev.)” value is reported as 113.87 ± 14.45%. Moreover, the EC50 in data set [2] (HEK-GPR139 cells) turned out to be 352 nM.
For `COc1ccc(CCNC(=O)c2cccc(-c3ccc(OC)nc3)c2)cc1` [SR-01000652579], the results for the “Lipophilic Efficiency (logD)” value in data set [1] (HEK Agonist Activity section) and in data set [2] (based on logD) were 1.08 and 3.26, respectively. Further, the “Lipophilic Efficiency (logP)” value stood at 1.08 in data set [1] (HEK Agonist Activity section) and 3.26 in data set [2] (based on logP). Moreover, the EC50 in data set [1] (setting [7]) was more than 14200 nM; in data set [2] (setting [4]) it was 93.2 nM. The “Averaged Max % Response (±St. Dev.)” value in data set [1] (HEK Agonist Activity section) is 11.17 ± 6.82%; in data set [2], 108.92 ± 9.07%. Besides, the “Hill Slope” value in data set [2] (fitted dose-response curve) amounted to 0.44. In addition, in data set [2] (ligand efficiency), the “Efficiency Ligand” value stood at 0.36.
As to `COc1ccc(CCNC(=O)c2cnc(N3CCCC3CO)s2)cc1` (stereo not shown) [SR-01000652673], the figures for the “Lipophilic Efficiency (logD)” value in data set [1] (HEK Agonist Activity) and in data set [2] (based on logD) were 2.61 and 5.68, respectively. Further, the “Lipophilic Efficiency (logP)” value in data set [1] (HEK Agonist Activity) was determined as 2.61; in data set [2] (based on logP), 5.68. For the same compound, the “Averaged Max % Response (±St. Dev.)” value in data set [1] (HEK Agonist Activity) was found to be 3.95 ± 2.97%; in data set [2], 123.26 ± 12.43%. The EC50 in data set [1] (setting [6]) was more than 13400 nM; in data set [2] (setting [4]), 11.5 nM. Further, the “Hill Slope” value in data set [2] (fitted dose-response curve) came out at 0.93. In addition, the “Efficiency Ligand” value in data set [2] (ligand efficiency) was 0.44.
For `COc1ccc(CCNC(=O)c2ccnc(N3CCN(Cc4ccc5c(c4)OCO5)CC3)c2)cc1` [SR-01000654192], the “Lipophilic Efficiency (logD)” value in data set [1] (HEK Agonist Activity section) was found to be 1.42; in data set [2] (based on logD) it was 3.51. In addition, the “Lipophilic Efficiency (logP)” value in data set [1] (HEK Agonist Activity section) was determined as 1.29; in data set [2] (based on logP), 3.38. The results for the EC50 in data set [1] (setting [7]) and in data set [2] (setting [4]) were more than 13300 nM and 110 nM, respectively. Moreover, the “Averaged Max % Response (±St. Dev.)” value in data set [1] (HEK Agonist Activity section) was 14.64 ± 17.11%; in data set [2], 115.41 ± 10.16%. Further, the “Hill Slope” value in data set [2] (fitted dose-response curve) was found to be 0.89. Further, in data set [2] (ligand efficiency), the “Efficiency Ligand” value stood at 0.28.
Take `COc1ccc(CCNC(=O)c2cncc(-c3csc4ccccc34)c2)cc1` [SR-01000654639]: the “Lipophilic Efficiency (logD)” value in data set [1] (HEK Agonist Activity section) is on record as 0.64; in data set [2] (based on logD), 2.51. Also, the “Lipophilic Efficiency (logP)” value in data set [1] (HEK Agonist Activity section) is on record as 0.64; in data set [2] (based on logP) it was 2.51. The figures for the concentration for a half-maximal effect (EC50) in data set [1] (setting [7]) and in data set [2] (setting [4]) were more than 14000 nM and 191 nM, respectively. In addition, the “Averaged Max % Response (±St. Dev.)” value in data set [1] (HEK Agonist Activity section) was determined as 1.22 ± 5.69%; in data set [2] it was 99.13 ± 2.27%. Moreover, the “Hill Slope” value in data set [2] (fitted dose-response curve) is given as 1.05. In addition, in data set [2] (ligand efficiency), the “Efficiency Ligand” value is listed as 0.34.
